The values that follow are results of earlier work, collected in patent US11103497B2, “Treatment of imatinib resistant leukemia” (Wyeth LLC, priority 2007, dated 2021).

For one data set, the system named is CML cells. The conditions noted are these: in culture; cited from earlier work.
For a further data set, the system named is chronic myeloid leukemia. The note with it: patients with chronic myeloid leukemia; cited from earlier work.
The next data set has as its system CML tumors. The note with it: nude mice; cited from earlier work.
The test system of another data set is BcrAbl T315I. The conditions noted are these: patients with amino acid mutation T315I in BcrAbl; cited from earlier work.

As for `Cc1ccc(NC(=O)c2ccc(CN3CCN(C)CC3)cc2)cc1Nc1nccc(-c2cccnc2)n1` [Imatinib], in the data set on CML cells, the “toxicity to CML cells” value is “toxic”. For the same molecule, the 5-year survival rate with chronic myeloid leukemia is listed as ~90%. Besides, the “regression of CML tumors” value with CML tumors is reported as “causes regression”.

Regarding `Cc1cn(-c2cc(NC(=O)c3ccc(C)c(Nc4nccc(-c5cccnc5)n4)c3)cc(C(F)(F)F)c2)cn1` [nilotinob], the “effectiveness against CML” value with BcrAbl T315I is “not effective”.
